The structures appear in SMILES notation.

By IC50 is commonly meant the concentration that gives 50% inhibition.

Data set [1] is described as follows: DPPH radical scavenging assay. The conditions noted are these: read-out: IC50 (SD) DPPH. How it is done: The antioxidant activities of the test compounds against ascorbic acid (Sigma Aldrich, Saint Louis, MO, USA) as a positive control were evaluated using a 2,2-diphenyl-1-picrylhydrazyl (DPPH) radical scavenging assay developed by Zhu et al., as described in our previous study. Duplicate solutions (20 μL) of the test compounds and ascorbic acid in DMSO (final concentrations: 5, 10, 25, 50, and 100 μM) were added into each designated well of a 96-well plate. A solution of DPPH (0.20 mM) (20 μL) in methanol was added to each well, and the 96-well plate was wrapped with aluminium foil and incubated in the dark for 45 min. Five absorbance readings were recorded at 512 nm using a Varioskan flash microplate spectrophotometer reader. The average values obtained from the absorbance readings were used to determine the IC50 and standard deviation values.
(In general: DPPH is a stable violet radical that fades when it is reduced.)

A short description of data set [2]: Nitric oxide radical scavenging assay (Griess reaction). The conditions noted are these: NO radical scavenging. How it is done:
Nitric oxide was generated from sodium nitroprusside and measured by Griess’ reaction following the literature method. The experiment was done in triplicate with ascorbic acid (vitamin C) used as a positive control for the assay. In total, 50 μL of each of the test compounds and the positive control at various concentrations (0.1, 0.5, 1.0, 5.0, and 10.0 μM in methanol) were added to each designated well of the 96 well plate. A total of 50 μL of sodium nitroprusside (10 mM) prepared in saline phosphate buffer (pH = 7.4) was then added to each well and the reaction mixture incubated at room temperature for 3 h. Afterward, 300 μL of the Griess reagent (a mixture of 0.2% N-(1-naphthyl)ethylenediamine dihydrochloride and 2% sulfanilamide in […]) was added to each well and absorbance was read at 546 nm using a Varioskan flash microplate spectrophotometer reader.

Another data set has as its target T1, β-secretase (Homo sapiens, UniProt P56817).
T1 construct: purchased Thermo Fisher Scientific Corporation; host or cells: baculovirus-expressed
The experiment in a line: β-Secretase (BACE-1) inhibition assay. The data set is classed as biochemical. The conditions noted are these: mean ± SD of three independent experiments. How it is done: The β-secretase inhibitory activities of the test compounds were assayed in triplicates in 96-well plates using a recombinant baculovirus-expressed β-secretase and a specific substrate (Rh-[…]-Quencher), according to the manufacturer’s (Thermo Fisher Scientific Corporation, Johannesburg, Gauteng, South Africa) instructions, as described in our previous study. […] To each well, 2.0 μL human recombinant β-secretase (1.0 U/mL) was added to start the reaction and the reaction mixture was incubated for 60 min at room temperature. […] The IC50 and standard deviation values of both the test compounds and reference standard were calculated using the Graph Pad Prism.

In data set [3] the target is T2, BChE (Homo sapiens, UniProt P06276).
T2 construct: purchased Cloud-Clone Corp. (via Biocom Africa (Pty) Ltd.)
T2 sequence (P06276 29-602): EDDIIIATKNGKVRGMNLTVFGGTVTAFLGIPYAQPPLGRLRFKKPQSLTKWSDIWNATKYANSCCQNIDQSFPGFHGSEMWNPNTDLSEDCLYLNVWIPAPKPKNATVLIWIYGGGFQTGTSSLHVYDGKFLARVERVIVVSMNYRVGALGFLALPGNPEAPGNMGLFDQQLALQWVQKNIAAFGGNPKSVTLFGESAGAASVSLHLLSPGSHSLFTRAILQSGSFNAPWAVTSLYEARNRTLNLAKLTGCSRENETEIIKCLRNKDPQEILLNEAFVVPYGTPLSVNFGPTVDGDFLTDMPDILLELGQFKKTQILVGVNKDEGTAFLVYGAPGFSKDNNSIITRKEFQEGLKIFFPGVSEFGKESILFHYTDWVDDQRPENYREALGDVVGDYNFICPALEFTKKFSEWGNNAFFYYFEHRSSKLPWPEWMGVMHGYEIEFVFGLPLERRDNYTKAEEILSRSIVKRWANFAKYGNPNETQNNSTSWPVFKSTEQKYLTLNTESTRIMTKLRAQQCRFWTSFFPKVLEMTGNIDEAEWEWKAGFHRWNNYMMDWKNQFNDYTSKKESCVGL
Kind of data set: biochemical. The conditions noted are these: mean ± SD of three independent experiments. How it is done:
(§1) The melting point values of the test compounds were recorded on a Thermocouple digital melting point apparatus (Mettler Toledo LLC, Columbus, OH, USA). The infrared (IR) spectra were recorded using the thin-film method on a Bruker VERTEX 70 FT-IR Spectrometer (Bruker Optics, Billerica, MA, USA) equipped with an ATR (diamond attenuated total reflectance) accessory. Merck kieselgel 60 (0.063–0.200 mm) (Merck KGaA, Frankfurt, Germany) was used as a stationary phase for column chromatography. The ^1H-NMR and ^13C-NMR spectra of the prepared compounds were obtained as deuterated dimethyl sulfoxide ((CD3)2SO) solutions using Agilent 500 MHz NMR spectrometer (Agilent Technologies, Oxford, UK) operating at 500 MHz and 125 MHz for ^1H and ^13C, respectively. The chemical shifts are quoted relative to tetramethylsilane (TMS) used as an internal reference standard (δ = 0.00 ppm) or a residual protonated solvent. The high-resolution mass spectra were recorded at an ionization potential of 70 eV using Micromass Autospec-TOF (double focusing high resolution) instrument (Waters Corp., Milford, MA, USA). The synthesis and analytical data for 2-amino-5-iodobenzamide (1) have been reported in our previous study. Recombinant human AChE (BioLegend) and BChE (Cloud-Clone Corp.) were purchased via Biocom Africa (Pty) Ltd. (Centurion, Pretoria, South Africa).
(§2) AChE and BChE were used to determine cholinesterase activities spectrophotometrically using […] as substrates, respectively, following a modification of the Ellman’s method, as described in our previous study, and the reactions were performed in triplicate at 37 °C in a 96-well plate. […] A multi-channel pipette was used for the addition of reagents to the wells.
A total of 8.0 μL of the test compound and 2.0 μL of BChE (0.02 mg/mL) was added to each of the designated wells of the 96-well plate, and the mixtures were incubated at room temperature for 30 min. Tris buffer (70 μL) was added to each well containing the reaction mixture and incubation was continued for a further 10 min at this temperature, which was followed by the addition of 10 μL solution of 5,5′-dithiobis-(2-nitrobenzoic acid) (DTNB) (3 mM in Tris buffer, 50 mM, pH 7.7) and butyrylcholine iodide (5 mM in Tris buffer, 50 mM, pH 7.7) to each well to initiate the reaction. […] The IC50 and standard deviation values using the Graph Pad Prism.

Another data set concerns the target T3, AChE (Homo sapiens, UniProt P22303).
T3 construct: purchased BioLegend (via Biocom Africa (Pty) Ltd.)
The experiment in a line: biochemical. The conditions noted are these: mean ± SD of three independent experiments. How it is done: as §1, §2
To each well of a 96-well plate, 8.0 μL solution of the test compound, 2.0 μL of AChE (0.04 mg/mL), and 70 μL of Tris buffer (C4H11NO3, 50 mM, pH 7.7) were added sequentially. The assay mixture was pre-incubated for 30 min at room temperature, which was followed by the addition of 10 μL of 5,5′-dithiobis-(2-nitrobenzoic acid) (DTNB, 3 mM in Tris buffer, 50 mM, pH 7.7) and 10 μL of […] (AChI, 5 mM in tris buffer, 50 mM, pH 7.7) to each well to initiate the reaction. […] The average values obtained from the absorbance readings were used to determine the IC50 and standard deviation values using the Graph Pad Prism (version 5.0, GraphPad software Inc., San Diego, CA, USA).

The nature of a further data set: in vitro. The conditions noted are these: human. As to the method: (§3) The cytotoxicity activity of the compounds was evaluated using the 3-(4,5-dimethylthiazol-2-yl)-2,5-diphenyltetrazolium bromide (MTT) assay following a modification of a method by Mosmann. Normal monkey kidney cells (Vero cells) and adeno-carcinomic human epithelial cells (A549 cells) were maintained in Dulbecco’s modified Eagle’s medium (DMEM, Gibco) supplemented with 10% fetal bovine serum (FBS) and 1% penicillin/streptomycin in culture flasks and incubated at 37 °C in 5% CO2. […] Cells were seeded at 1 × 10^5 cells/well and incubated overnight to allow cell attachment. After 24 h, treatments were administered with different concentrations (0, 2.5, 5, 10, 25, 50, and 100 μM) of the compounds and doxorubicin (positive control). After 24 h of incubation, 20 μL of the MTT solution (5 mg/mL) was added in all the wells, which was followed by 4 h of incubation.

Data set [4] is described as follows: Cytotoxicity (MTT assay) on Vero cells. As to the method:
as §3
For orientation: Tetrazolium assays rely on reduction of a dye to a coloured formazan, in cell work by metabolically active cells.

A further data set concerns Vero cells. Kind of data set: LPS-induced ROS production in Vero cells (H2DCF-DA). It is filed as cell-based, monkey. The conditions noted are these: 10 μM compound, LPS 1 μg/mL, 24 h (Figure 9a). How it is done:
(§4) Mitochondrial ROS levels in Vero and A549 cell lines was measured using the 2′,7′-dichlorofluorescin diacetate (H2DCF-DA) (Sigma-Aldrich, St. Louis, MO, USA, Merck, Darmstadt, Germany), fluorescent probe. Cells (1 × 10^5) were seeded in 96 well plates and incubated overnight at 37 °C in 5% CO2. A minimum non-toxic concentration (10 μM) of compounds (2a and 3b) was added separately as treatment and further incubated for an hour, after which LPS (1 μg/mL) was added to induce the production of ROS. After 24 h of incubation, the media was aspirated, cells were rinsed with PBS, and followed by the addition of H2DCF-DA (10 μM) for 30 min in the dark. The absorbance of the fluorescence was measured using a microplate reader (VarioSkan Flash, Thermo Fisher Scientific, Finland) at 485 and 535 nm values of excitation and emission, respectively. Data was processed and analysed using ANOVA, which was followed by Duncan’s multiple comparison test.

In another data set the test system is A549 cells. Kind of data set: LPS-induced ROS production in A549 cells (H2DCF-DA). The data set is classed as cell-based, human. The conditions noted are these: 10 μM compound, LPS 1 μg/mL, 24 h (Figure 9b). How it is done: as §4
Data set [5] has as its system BChE. The arrangement: method as in PMID 23722618. The conditions noted are these: cited from earlier work.

T3 sequence (P22303 32-614): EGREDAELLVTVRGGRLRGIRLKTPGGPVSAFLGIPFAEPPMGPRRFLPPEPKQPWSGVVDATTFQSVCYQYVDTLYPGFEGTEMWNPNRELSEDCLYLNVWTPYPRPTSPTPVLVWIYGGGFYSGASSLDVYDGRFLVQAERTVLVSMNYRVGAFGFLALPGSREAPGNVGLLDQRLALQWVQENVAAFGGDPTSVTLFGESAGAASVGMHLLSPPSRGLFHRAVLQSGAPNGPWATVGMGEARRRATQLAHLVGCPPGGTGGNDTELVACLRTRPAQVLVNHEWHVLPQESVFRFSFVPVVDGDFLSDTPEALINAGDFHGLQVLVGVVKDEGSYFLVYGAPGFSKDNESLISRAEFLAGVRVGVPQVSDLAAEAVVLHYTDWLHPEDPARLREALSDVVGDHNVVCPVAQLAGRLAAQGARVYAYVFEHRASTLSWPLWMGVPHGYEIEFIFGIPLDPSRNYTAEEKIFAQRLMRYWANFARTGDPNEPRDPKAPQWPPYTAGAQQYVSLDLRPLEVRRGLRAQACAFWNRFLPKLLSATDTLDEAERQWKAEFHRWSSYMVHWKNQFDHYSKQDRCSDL
T1 sequence (P56817 46-501): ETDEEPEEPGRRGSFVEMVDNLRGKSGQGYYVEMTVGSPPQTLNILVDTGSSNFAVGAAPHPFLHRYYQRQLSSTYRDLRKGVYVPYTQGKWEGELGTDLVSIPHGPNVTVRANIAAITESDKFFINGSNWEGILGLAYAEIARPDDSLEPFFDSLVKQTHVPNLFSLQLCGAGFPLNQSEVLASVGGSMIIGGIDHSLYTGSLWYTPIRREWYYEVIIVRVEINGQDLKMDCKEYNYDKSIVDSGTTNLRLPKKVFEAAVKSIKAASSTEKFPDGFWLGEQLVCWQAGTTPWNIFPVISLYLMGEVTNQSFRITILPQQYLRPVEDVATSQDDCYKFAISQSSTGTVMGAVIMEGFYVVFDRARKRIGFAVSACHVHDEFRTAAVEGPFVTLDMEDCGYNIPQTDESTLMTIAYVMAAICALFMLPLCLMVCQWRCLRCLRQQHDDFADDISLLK

For `Cc1ccc(S(=O)(=O)Nc2ccc(/C=C/c3ccc(Cl)cc3)cc2C(N)=O)cc1` [Compound 3c, (E)-5-(4-Chlorostyryl)-2-[[(4-methylphenyl)sulfonyl]amino]benzamide], the 50% inhibitory concentration (IC50) in data set [1] was 22.4 ± 0.51 µM; in [2] it was 8.6 ± 0.3 µM; against β-secretase, 15 ± 0.16 µM; at BChE [3], 6.9 ± 0.1 µM; at AChE, 7.8 ± 0.21 µM.

As to `O=C1O[C@H]([C@@H](O)CO)C(O)=C1O` [Ascorbic acid, reference compound], the IC50 in data set [1] (listed as ascorbic acid) came to 4.2 µM; in data set [1], 4.18 ± 0.13 µM; in data set [2], 6.23 ± 0.13 µM; in data set [2] (listed as ascorbic acid), 6.2 µM.

On to `Cc1ccc(S(=O)(=O)Nc2ccc(/C=C/c3ccccc3)cc2C(N)=O)cc1` [Compound 3a, (E)-5-Styryl-2-[[(4-methylphenyl)sulfonyl]amino]benzamide], for which the half-inhibitory concentration (IC50) in data set [1] amounted to 19.4 ± 0.4 µM; in data set [2] it was 13.1 ± 0.43 µM; against β-secretase, 16.5 ± 0.31 µM; against BChE [3], 10.8 ± 0.4 µM; on AChE, 9.5 ± 0.53 µM.

`NC(=O)c1cc(/C=C/c2ccc(F)cc2)ccc1N` [Compound 2b, (E)-2-Amino-5-(4-fluorostyryl)benzamide]: the IC50 is 12.9 ± 0.22 µM in data set [1]; 15.8 ± 0.3 µM in [2]; 13.9 ± 0.25 µM at β-secretase; 19.7 ± 0.25 µM against BChE [3]; 5.4 ± 0.12 µM at AChE.

Consider `Cc1ccc(S(=O)(=O)Nc2ccc(/C=C/c3ccc(F)cc3)cc2C(N)=O)cc1` [Compound 3b, (E)-5-(4-Fluorostyryl)-2-[[(4-methylphenyl)sulfonyl]amino]benzamide], for which the IC50 is 25.6 ± 0.3 µM in [1], 10.1 ± 0.18 µM against β-secretase, 8.1 ± 0.52 µM on BChE [3] and 4.3 ± 0.48 µM against AChE. The concentration for half-maximal inhibition (IC50) at 24 h in the data set “in vitro” (A549 cells (adeno-carcinomic human epithelial cells)) amounted to 55 ± 0.11 µM; in data set [4] (monkey, Vero cells (normal monkey kidney cells)), 191.4 ± 0.6 µM. Also, the “suppression of LPS-induced ROS” value in the data set with Vero cells is on record as around 40%. The “ROS reduction (in words)” value in the data set with A549 cells is reported as “significant ROS reduction”.

With `Oc1ccccc1/C=C/c1cc(O)c(F)c(O)c1` [C], the “fold more active and selective against BChE than against AChE” value in the data set with BChE [5] is 94 fold.

On to `NC(=O)c1cc(/C=C/c2ccc(Cl)cc2)ccc1N` [Compound 2c, (E)-2-Amino-5-(4-chlorostyryl)benzamide], for which the half-maximal inhibitory concentration (IC50) in [1] was determined as 11.3 ± 0.11 µM; in [2] it was 9.3 ± 0.13 µM; against β-secretase, 6.7 ± 0.18 µM; against BChE [3], 18.9 ± 0.24 µM; against AChE, 8.6 ± 0.42 µM.

As for `COc1ccc(/C=C/c2ccc(N)c(C(N)=O)c2)cc1` [Compound 2d, (E)-2-Amino-5-(4-methoxystyryl)benzamide], the IC50 in data set [1] amounted to 20.8 ± 0.24 µM; in data set [2] it was 11.2 ± 0.22 µM; against β-secretase, 17.2 ± 0.31 µM; at BChE [3], 14.6 ± 0.47 µM; against AChE, 7.8 ± 0.3 µM.

Regarding `COc1ccc(/C=C/c2ccc(NS(=O)(=O)c3ccc(C)cc3)c(C(N)=O)c2)cc1` [Compound 3d, (E)-5-(4-Methoxystyryl)-2-[[(4-methylphenyl)sulfonyl]amino]benzamide], the IC50 in [1] came out at 9.1 ± 0.26 µM; in data set [2], 12.3 ± 0.31 µM; at β-secretase it was 19.3 ± 0.24 µM; against BChE [3], 13.3 ± 0.26 µM; against AChE, 11.3 ± 0.23 µM.

Turning to `COc1cccc2c1C(=O)c1c(O)c3c(c(O)c1C2=O)C[C@@](O)(C(=O)CO)C[C@@H]3O[C@H]1C[C@H](N)[C@H](O)[C@H](C)O1` [Doxorubicin, reference compound], the concentration for half-maximal inhibition (IC50) at 24 h in “in vitro” was 1.14 ± 0.23 µM; in data set [4] it was 0.66 ± 0.12 µM.

Source of the values: article PMC8145986, “In Vitro Enzymatic and Kinetic Studies, and In Silico Drug-Receptor Interactions, and Drug-Like Profiling of the 5-Styrylbenzamide Derivatives as Potential Cholinesterase and β-Secretase Inhibitors with Antioxidant Properties” (Antioxidants, 2021).
